# Structures can show the parent of a compound that is named as a salt. Where two headings read alike, the source gives them in different places.
# B1: lambda-Exo alkaline exonuclease from bacteriophage lambda (protein)
# chain: MTPDIILQRTGIDVRAVEQGDDAWHKLRLGVITASEVHNVIAKPRSGKKWPDMKMSYFHTLLAEVCTGVAPEVNAKALAWGKQYENDARTLFEFTSGVNVTESPIIYRDESMRTACSPDGLCSDGNGLELKCPFTSRDFMKFRLGGFEAIKSAYMAQVQYSMWVTRKNAWYFANYDPRMKREGLHYVVIERDEKYMASFDEIVPEFIEKMDEALAEIGFVFGEQWR
# B2: SXT-Exo alkaline exonuclease (S066) from the SXT genetic element of Vibrio cholerae (protein)
# chain: MKTLSERLNHALQLTGVTQSELARRIGIKQQSISQICSGKSARSRYTMQIAEALRVNAHWLATGDGEIGLGVGNVEVGPDIKGRIPLINWVQAGDWTEIAEGFAHEDAEEWREVTGKAHEGCFALRVKGDSMENPSGKKSIPEGAVIVVDPELPYSSGSLVVARLDDSKEATFKQLVIDGEQKYLKPLNPQYPAIPINGNCTIIGVVRQAIIDFW
# Assays:
# SXT-Exo (S066) = SXT-Exo (S066) (Vibrio cholerae, UniProt Q8KQV9); assay: quenched PicoGreen dsDNA exonuclease assay; type: biochemical
# [1] = target: SXT-Exo alkaline exonuclease (S066) from the SXT genetic element of Vibrio cholerae (SXT integrating conjugative element of Vibrio cholerae) (UniProt Q79S39); assay: SEC; Superdex 200 HR 10/300 GL, 25 mM Tris-HCl pH7.4, 150 mM NaCl, 1 mM EDTA, 5 mM imidazole, 0.4 ml/min, 4°C; column calibrated with protein standards; oligomer size from the apparent molecular weight
# P03697 = assay: as above
# Q79S39 = assay: as above
# SXT-Exo (S066), sequence (Q8KQV9 1-338 limits assumed): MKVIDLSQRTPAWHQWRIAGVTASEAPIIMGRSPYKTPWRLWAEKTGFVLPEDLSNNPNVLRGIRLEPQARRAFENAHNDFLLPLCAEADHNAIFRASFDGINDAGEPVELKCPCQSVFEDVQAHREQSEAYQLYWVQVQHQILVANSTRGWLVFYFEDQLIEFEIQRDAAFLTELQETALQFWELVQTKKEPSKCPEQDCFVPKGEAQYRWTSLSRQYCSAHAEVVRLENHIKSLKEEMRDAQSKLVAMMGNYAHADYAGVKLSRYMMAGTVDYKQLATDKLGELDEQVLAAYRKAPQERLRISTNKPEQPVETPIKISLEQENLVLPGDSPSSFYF
molecule,measurement,setting,value
O=P(O)(O)O [sodium phosphate],IC50,SXT-Exo (S066); IC50,25 mM
SXT-Exo alkaline exonuclease (S066) from the SXT genetic element of Vibrio cholerae (from UniProt Q79S39 1-215) (enzyme),stoichiometry N,[1],3
O=S(=O)(O)O [sodium sulfate],IC50,SXT-Exo (S066); IC50,~20 mM
O=S(=O)(O)O [potassium sulfate],IC50,SXT-Exo (S066),~35 mM
B1,monomers per oligomer from the SEC apparent molecular weight,P03697,corresponded to 3.35 protein monomers
B2,monomers per oligomer from the SEC apparent molecular weight,Q79S39,corresponded to ca. 3.5 SXT-Exo monomers

# Source: publication PMC3118119, “Functional characterization of an alkaline exonuclease and single strand annealing protein from the SXT genetic element of Vibrio cholerae” (BMC Molecular Biology, 2011)
